# Results from article PMC12335596 (Scientific Reports, 2025).
# What was measured:
# [1] = biological target: urease (JBU; EC 3.5.1.5) (Canavalia ensiformis, UniProt P07374); experiment: In vitro urease inhibitory activity; format: biochemical, Jack bean
# [2] = biological target: Jack bean urease (Canavalia ensiformis, UniProt P07374); experiment: Kinetic study, Lineweaver–Burk plot analysis; format: biochemical; conditions: varying concentrations of inhibitor and urea; Vmax decreased, Km increased
# Sequence of Jack bean urease (P07374 whole entry, looked up): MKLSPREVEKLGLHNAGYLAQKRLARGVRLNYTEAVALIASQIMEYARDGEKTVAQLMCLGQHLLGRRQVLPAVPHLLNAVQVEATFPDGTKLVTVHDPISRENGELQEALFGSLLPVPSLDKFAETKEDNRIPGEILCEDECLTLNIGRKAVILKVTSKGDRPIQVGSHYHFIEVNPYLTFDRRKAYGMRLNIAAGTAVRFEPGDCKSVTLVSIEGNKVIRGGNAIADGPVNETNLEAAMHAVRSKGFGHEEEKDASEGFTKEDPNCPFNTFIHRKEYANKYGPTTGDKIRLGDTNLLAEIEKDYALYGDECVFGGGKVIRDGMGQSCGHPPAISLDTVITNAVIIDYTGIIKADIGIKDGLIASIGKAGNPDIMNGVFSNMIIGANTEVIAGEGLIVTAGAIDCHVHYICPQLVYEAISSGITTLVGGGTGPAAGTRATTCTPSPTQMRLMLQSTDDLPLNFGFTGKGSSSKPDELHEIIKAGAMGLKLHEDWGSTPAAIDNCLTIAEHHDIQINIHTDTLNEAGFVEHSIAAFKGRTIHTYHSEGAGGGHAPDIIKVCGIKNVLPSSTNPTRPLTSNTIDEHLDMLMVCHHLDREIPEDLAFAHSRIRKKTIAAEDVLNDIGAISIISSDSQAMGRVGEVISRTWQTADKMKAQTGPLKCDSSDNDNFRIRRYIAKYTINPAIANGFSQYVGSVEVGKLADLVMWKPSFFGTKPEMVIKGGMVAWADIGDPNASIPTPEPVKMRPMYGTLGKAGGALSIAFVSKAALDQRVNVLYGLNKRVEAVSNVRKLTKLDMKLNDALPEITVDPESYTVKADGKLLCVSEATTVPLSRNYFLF
# Sequence of urease (JBU; EC 3.5.1.5) (P07374 whole entry, looked up): as above
Structure (SMILES),IC50 [1] [nM],further results
"COc1cc(-c2nc3cc(C(=O)N4CCN(c5ccccc5)CC4)ccc3[nH]2)ccc1OCC(=O)Nc1cccc([N+](=O)[O-])c1 [Compound 9 L, 2-(2-Methoxy-4-(5-(4-phenylpiperazine-1-carbonyl)−1H-benzo[d]imidazol-2-yl)phenoxy)-N-(3-nitrophenyl)acetamide]",150 ± 90,mode of enzyme inhibition [2]: mixed inhibitor
"COc1ccc(NC(=O)COc2ccc(-c3nc4cc(C(=O)N5CCN(c6ccccc6)CC5)ccc4[nH]3)cc2OC)cc1 [Compound 9 g, 2-(2-Methoxy-4-(5-(4-phenylpiperazine-1-carbonyl)−1H-benzo[d]imidazol-2-yl)phenoxy)-N-(4-methoxyphenyl)acetamide]",–,fold more potent than 9d ([1]; ratio of IC50 values vs compound 9d): seven-fold
"COc1cc(-c2nc3cc(C(=O)N4CCN(c5ccccc5)CC4)ccc3[nH]2)ccc1OCC(=O)Nc1ccccc1F [Compound 9 h, N-(2-Fluorophenyl)−2-(2-methoxy-4-(5-(4-phenylpiperazine-1-carbonyl)−1H-benzo[d]imidazol-2-yl)phenoxy)acetamide]",2400 ± 360,–
"COc1cc(-c2nc3cc(C(=O)N4CCN(c5ccccc5)CC4)ccc3[nH]2)ccc1OCC(=O)Nc1ccc([N+](=O)[O-])cc1 [Compound 9 m, 2-(2-Methoxy-4-(5-(4-phenylpiperazine-1-carbonyl)−1H-benzo[d]imidazol-2-yl)phenoxy)-N-(4-nitrophenyl)acetamide]",350 ± 340,–
"COc1cc(-c2nc3cc(C(=O)N4CCN(c5ccccc5)CC4)ccc3[nH]2)ccc1OCC(=O)Nc1ccccc1 [Compound 9a, 2-(2-Methoxy-4-(5-(4-phenylpiperazine-1-carbonyl)−1H-benzo[d]imidazol-2-yl)phenoxy)-N-phenylacetamide]",11100 ± 1180,"fold more potent than standard thiourea (X) ([1]; ratio of IC50 values, standard thiourea vs compound): two-fold"
"COc1cc(-c2nc3cc(C(=O)N4CCN(c5ccccc5)CC4)ccc3[nH]2)ccc1OCC(=O)Nc1ccccc1C [Compound 9b, 2-(2-Methoxy-4-(5-(4-phenylpiperazine-1-carbonyl)−1H-benzo[d]imidazol-2-yl)phenoxy)-N-(o-tolyl)acetamide]",820 ± 100,–
"COc1cc(-c2nc3cc(C(=O)N4CCN(c5ccccc5)CC4)ccc3[nH]2)ccc1OCC(=O)Nc1ccc(C)cc1 [Compound 9d, 2-(2-Methoxy-4-(5-(4-phenylpiperazine-1-carbonyl)−1H-benzo[d]imidazol-2-yl)phenoxy)-N-(p-tolyl)acetamide]",12200 ± 1090,–
"COc1cc(-c2nc3cc(C(=O)N4CCN(c5ccccc5)CC4)ccc3[nH]2)ccc1OCC(=O)Nc1c(C)cccc1C [Compound 9e, N-(2,6-Dimethylphenyl)−2-(2-methoxy-4-(5-(4-phenylpiperazine-1-carbonyl)−1H-benzo[d]imidazol-2-yl)phenoxy)acetamide]",1260 ± 60,–
"CCc1ccc(NC(=O)COc2ccc(-c3nc4cc(C(=O)N5CCN(c6ccccc6)CC5)ccc4[nH]3)cc2OC)cc1 [Compound 9f, N-(4-Ethylphenyl)−2-(2-methoxy-4-(5-(4-phenylpiperazine-1-carbonyl)−1H-benzo[d]imidazol-2-yl)phenoxy)acetamide]",510 ± 100,–
"COc1cc(-c2nc3cc(C(=O)N4CCN(c5ccccc5)CC4)ccc3[nH]2)ccc1OCC(=O)Nc1ccccc1Cl [Compound 9i, N-(2-Chlorophenyl)−2-(2-methoxy-4-(5-(4-phenylpiperazine-1-carbonyl)−1H-benzo[d]imidazol-2-yl)phenoxy)acetamide]",9240 ± 370,–
"COc1cc(-c2nc3cc(C(=O)N4CCN(c5ccccc5)CC4)ccc3[nH]2)ccc1OCC(=O)Nc1cccc(Cl)c1 [Compound 9j, N-(3-Chlorophenyl)−2-(2-methoxy-4-(5-(4-phenylpiperazine-1-carbonyl)−1H-benzo[d]imidazol-2-yl)phenoxy)acetamide]",2720 ± 70,–
"COc1cc(-c2nc3cc(C(=O)N4CCN(c5ccccc5)CC4)ccc3[nH]2)ccc1OCC(=O)Nc1ccc(Cl)cc1 [Compound 9k, N-(4-Chlorophenyl)−2-(2-methoxy-4-(5-(4-phenylpiperazine-1-carbonyl)−1H-benzo[d]imidazol-2-yl)phenoxy)acetamide]",1780 ± 240,–
